Laboratory results: patent US11918582B2 (RAPT Therapeutics, Inc., priority 2021, dated 2024)
Where a name gives a salt, the structure may show the parent alone.

Target: T1, human HPK1 (MAP4K1) (Homo sapiens, UniProt Q92918)
T1 construct: Recombinant human HPK1 kinase domain was obtained from ThermoFisher (Cat. #PV6357) and SignalChem (Cat. #M23-11G); purchased ThermoFisher; SignalChem PV6357; M23-11G
T1 sequence (Q92918 17-274 limits assumed): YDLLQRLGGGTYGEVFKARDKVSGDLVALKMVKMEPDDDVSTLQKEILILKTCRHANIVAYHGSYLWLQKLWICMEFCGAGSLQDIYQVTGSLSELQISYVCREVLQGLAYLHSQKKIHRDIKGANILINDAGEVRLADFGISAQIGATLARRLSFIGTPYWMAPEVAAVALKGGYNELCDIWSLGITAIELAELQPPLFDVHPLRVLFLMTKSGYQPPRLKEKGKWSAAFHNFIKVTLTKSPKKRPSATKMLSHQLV
Test: Biochemical assay for activity against HPK1 (ADP-Glo, MBP substrate)
Details: recombinant human HPK1 kinase domain, 1 nM enzyme, ADP-Glo luminescence
Outline: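 IC50s come from ADP-Glo luminescence after a 2 h room-temperature reaction phosphorylating MBP in the presence of ATP. Compound was first preincubated 15 min with 1 nM HPK1 kinase domain, human recombinant. Buffer: 50 mM HEPES pH 7.5, 150 mM NaCl, 3 mM TCEP, 10 mM MgCl2, 0.005% Tween-20, 0.01% BSA.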

Row | SMILES | IC50
1 | CCC(=O)N1CCC[C@H]1Cn1ncc2cnc(Nc3cc4c(cc3OC)CCN(C)C4)nc21 [Example 112, (S)-1-(2-((6-((6-methoxy-2-methyl-1,2,3,4-tetrahydroisoquinolin-7-yl)amino)-1H-pyrazolo[3,4-d]pyrimidin-1-yl)methyl)pyrrolidin-1-yl)propan-1-one trifluoroacetate] | < 100 nM
2 | COc1cc2c(cc1Nc1ncc3cnn(CC4CC(CO)C4)c3n1)CN(C)CC2 (centres unmarked) [Example 61, (3-((6-((6-methoxy-2-methyl-1,2,3,4-tetrahydroisoquinolin-7-yl)amino)-1H-pyrazolo[3,4-d]pyrimidin-1-yl)methyl)cyclobutyl)methanol] | < 100 nM
3 | COc1cc2c(cc1Nc1ncc3cnn(CCC(C)(C)O)c3n1)CN(C)CC2 [Example 85, 4-[6-[(6-methoxy-2-methyl-3,4-dihydro-1H-isoquinolin-7-yl)amino]pyrazolo[3,4-d]pyrimidin-1-yl]-2-methyl-butan-2-ol] | < 100 nM
4 | CN1CCc2ccc(Nc3ncc4cnn(C5CCOCC5)c4n3)cc2C1 [Example 12, 2-methyl-N-(1-(tetrahydro-2H-pyran-4-yl)-1H-pyrazolo[3,4-d]pyrimidin-6-yl)-1,2,3,4-tetrahydroisoquinolin-7-amine] | < 100 nM
5 | COc1cc2c(cc1Nc1ncc3cnn([C@H]4CC[C@H](CO)C4)c3n1)CN(C)CC2 (racemic) [Example 48, rac-(trans-3-(6-((6-methoxy-2-methyl-1,2,3,4-tetrahydroisoquinolin-7-yl)amino)-1H-pyrazolo[3,4-d]pyrimidin-1-yl)cyclopentyl)methanol] | < 100 nM
6 | COc1cc2c(cc1Nc1ncc3cnn(C4CCC(C)(CO)CC4)c3n1)CN(C)CC2 (mixture of isomers) [Example 75, [4-[6-[(6-methoxy-2-methyl-3,4-dihydro-1H-isoquinolin-7-yl)amino]pyrazolo[3,4-d]pyrimidin-1-yl]-1-methyl-cyclohexyl]methanol] | > 251 nM
7 | CN1CCc2ccc(Nc3ncc4cnn(C5COC5)c4n3)cc2C1 [Example 1, 2-methyl-N-(1-(oxetan-3-yl)-1H-pyrazolo[3,4-d]pyrimidin-6-yl)-1,2,3,4-tetrahydroisoquinolin-7-amine] | < 100 nM
8 | COc1cc2c(cc1Nc1ncc3cnn(C[C@@H]4CCCN4C(N)=O)c3n1)CN(C)CC2 [Example 217, (2S)-2-[[6-[(6-methoxy-2-methyl-3,4-dihydro-1H-isoquinolin-7-yl)amino]pyrazolo[3,4-d]pyrimidin-1-yl]methyl]pyrrolidine-1-carboxamide] | < 100 nM
9 | COc1cc2c(cc1Nc1ncc3cnn(C4CCN(S(C)(=O)=O)CC4)c3n1)CN(C)CC2 [Example 105, 6-methoxy-2-methyl-N-(1-(1-(methylsulfonyl)piperidin-4-yl)-1H-pyrazolo[3,4-d]pyrimidin-6-yl)-1,2,3,4-tetrahydroisoquinolin-7-amine] | < 100 nM
10 | COc1cc2c(cc1Nc1ncc3cnn([C@H]4CCN(C(C)=O)C[C@H]4C)c3n1)CN(C)CC2 [Example 210, 1-((3R,4S)-4-(6-((6-methoxy-2-methyl-1,2,3,4-tetrahydroisoquinolin-7-yl)amino)-1H-pyrazolo[3,4-d]pyrimidin-1-yl)-3-methylpiperidin-1-yl)ethan-1-one] | < 100 nM
11 | COc1cc2c(cc1Nc1ncc3cnn(C[C@@H]4CCCN4C(C)=O)c3n1)CN(C(C)C)CC2 [Example 196, (S)-1-(2-((6-((2-isopropyl-6-methoxy-1,2,3,4-tetrahydroisoquinolin-7-yl)amino)-1H-pyrazolo[3,4-d]pyrimidin-1-yl)methyl)pyrrolidin-1-yl)ethan-1-one hydrochloride] | < 100 nM
12 | COc1cc2c(cc1Nc1ncc3cnn([C@H]4C[C@H](CNS(=O)(=O)C5CC5)C4)c3n1)CN(C)CC2 [Example 123, N-[[3-[6-[(6-methoxy-2-methyl-3,4-dihydro-1H-isoquinolin-7-yl)amino]pyrazolo[3,4-d]pyrimidin-1-yl]cyclobutyl]methyl]cyclopropanesulfonamide] | < 100 nM
13 | COc1cc2c(cc1Nc1ncc3cnn([C@H]4CC[C@@H](OC)CC4)c3n1)CN(C)CC2 [Example 46, 6-methoxy-N-(1-((1s,4s)-4-methoxycyclohexyl)-1H-pyrazolo[3,4-d]pyrimidin-6-yl)-2-methyl-1,2,3,4-tetrahydroisoquinolin-7-amine] | < 100 nM
14 | COc1cc2c(cc1Nc1ncc3cnn(CCN(C)C(C)=O)c3n1)CN(C)CC2 [Example 91, N-[2-[6-[(6-methoxy-2-methyl-3,4-dihydro-1H-isoquinolin-7-yl)amino]pyrazolo[3,4-d]pyrimidin-1-yl]ethyl]-N-methyl-acetamide] | 100 to 250 nM
15 | COc1cc2c(cc1Nc1ncc3cnn([C@@H](C)CCO)c3n1)CN(C)CC2 [Example 100] | < 100 nM
16 | CN1CCc2ccc(Nc3ncc4cnn(C5CCNCC5)c4n3)cc2C1 [Example 16, 2-methyl-N-(1-(piperidin-4-yl)-1H-pyrazolo[3,4-d]pyrimidin-6-yl)-1,2,3,4-tetrahydroisoquinolin-7-amine hydrochloride] | < 100 nM
17 | COc1cc2c(cc1Nc1ncc3cnn(C[C@]4(C)CCCN4C(C)=O)c3n1)CN(C)CC2 [Example 135, (S)-1-(2-((6-((6-methoxy-2-methyl-1,2,3,4-tetrahydroisoquinolin-7-yl)amino)-1H-pyrazolo[3,4-d]pyrimidin-1-yl)methyl)-2-methylpyrrolidin-1-yl)ethan-1-one] | < 100 nM
18 | COc1cc2c(cc1Nc1ncc3cnn(C[C@@H]4CCCN(C(C)=O)C4)c3n1)CN(C)CC2 [Example 140, 1-[(3R)-3-[[6-[(6-methoxy-2-methyl-3,4-dihydro-1H-isoquinolin-7-yl)amino]pyrazolo[3,4-d]pyrimidin-1-yl]methyl]-1-piperidyl]ethan-1-one] | < 100 nM
19 | COc1cc2c(cc1Nc1ncc3cnn(C[C@@H]4C[C@H](O)CN4C(C)=O)c3n1)CN(C)CC2 [Example 221, 1-((2S,4S)-4-hydroxy-2-((6-((6-methoxy-2-methyl-1,2,3,4-tetrahydroisoquinolin-7-yl)amino)-1H-pyrazolo[3,4-d]pyrimidin-1-yl)methyl)pyrrolidin-1-yl)ethan-1-one] | < 100 nM
20 | COc1cc2c(cc1Nc1ncc3cnn(C[C@H]4C[C@@H](NC(C)=O)C4)c3n1)CN(C)CC2 [Example 119, cis N-(3-((6-((6-methoxy-2-methyl-1,2,3,4-tetrahydroisoquinolin-7-yl)amino)-1H-pyrazolo[3,4-d]pyrimidin-1-yl)methyl)cyclobutyl)acetamide] | < 100 nM

Continued, values first:

Row | IC50 | SMILES
21 | < 100 nM | COc1cc2c(cc1Nc1ncc3cnn(C[C@@H]4CCCN4C(C)=O)c3n1)C(C)(C)N(C)CC2 [Example 178, (S)-1-(2-((6-((6-methoxy-1,1,2-trimethyl-1,2,3,4-tetrahydroisoquinolin-7-yl)amino)-1H-pyrazolo[3,4-d]pyrimidin-1-yl)methyl)pyrrolidin-1-yl)ethan-1-one]
22 | < 100 nM | COc1cc2c(cc1Nc1ncc3cnn(C[C@@H]4COCCN4C(C)=O)c3n1)CN(C)CC2 [Example 129, (R)-1-(3-((6-((6-methoxy-2-methyl-1,2,3,4-tetrahydroisoquinolin-7-yl)amino)-1H-pyrazolo[3,4-d]pyrimidin-1-yl)methyl)morpholino)ethan-1-one trifluoroacetate]
23 | < 100 nM | CN1CCc2ccc(Nc3ncc4cnn([C@H]5CCOC5)c4n3)cc2C1 [Example 19, (S)-2-methyl-N-(1-(tetrahydrofuran-3-yl)-1H-pyrazolo[3,4-d]pyrimidin-6-yl)-1,2,3,4-tetrahydroisoquinolin-7-amine]
24 | < 100 nM | COc1cc2c(cc1Nc1ncc3c(C)nn([C@H]4CC[C@@H](O)C4)c3n1)CN(C)CC2 (relative stereo) [Example 149, (rel-1S,3R)-3-(6-((6-methoxy-2-methyl-1,2,3,4-tetrahydroisoquinolin-7-yl)amino)-3-methyl-1H-pyrazolo[3,4-d]pyrimidin-1-yl)cyclopentan-1-ol]
25 | 100 to 250 nM | COc1cc2c(cc1Nc1ncc3cnn([C@H]4CCCC[C@@H]4C)c3n1)CN(C)CC2 (racemic) [Example 30, rac-6-methoxy-2-methyl-N-(1-((1S,2S)-2-methylcyclohexyl)-1H-pyrazolo[3,4-d]pyrimidin-6-yl)-1,2,3,4-tetrahydroisoquinolin-7-amine]
26 | < 100 nM | COc1cc2c(cc1Nc1ncc3cnn(C[C@@H]4CCCN4C(C)=O)c3n1)CN(C[C@@H](C)O)CC2 [Example 195, 1-((S)-2-((6-((2-((R)-2-hydroxypropyl)-6-methoxy-1,2,3,4-tetrahydroisoquinolin-7-yl)amino)-1H-pyrazolo[3,4-d]pyrimidin-1-yl)methyl)pyrrolidin-1-yl)ethan-1-one]
27 | < 100 nM | COc1cc2c(cc1Nc1ncc3cnn([C@H]4CC[C@H](NS(C)(=O)=O)CC4)c3n1)CN(C)CC2 [Example 79, trans-N-[4-[6-[(6-methoxy-2-methyl-3,4-dihydro-1H-isoquinolin-7-yl)amino]pyrazolo[3,4-d]pyrimidin-1-yl]cyclohexyl]methanesulfonamide]
28 | < 100 nM | COc1nc2c(cc1Nc1ncc3cnn(C[C@@H]4CCCN4C(C)=O)c3n1)CN(C)CC2 [Example 198]
29 | < 100 nM | CN1CCc2ccc(Nc3ncc4cnn(CC5COC5)c4n3)cc2C1 [Example 14, 2-methyl-N-(1-(oxetan-3-ylmethyl)-1H-pyrazolo[3,4-d]pyrimidin-6-yl)-1,2,3,4-tetrahydroisoquinolin-7-amine]
